We go through nine molecules from US4775680A, “Cyclohept[b]indolealkanoic acids, pharmaceutical compositions and use” (Merck & Co., Inc., priority 1987, dated 1988).

Assay [1] deals with T1, guinea pig tracheal chain (Cavia porcellus, UniProt A0A286Y4I8).
T1 construct: The trachea was removed, freed of extraneous tissue and sectioned into rings; from tissue; host or cells: guinea pig trachea (male albino Hartley strain)
T1 sequence (A0A286Y4I8 1-347): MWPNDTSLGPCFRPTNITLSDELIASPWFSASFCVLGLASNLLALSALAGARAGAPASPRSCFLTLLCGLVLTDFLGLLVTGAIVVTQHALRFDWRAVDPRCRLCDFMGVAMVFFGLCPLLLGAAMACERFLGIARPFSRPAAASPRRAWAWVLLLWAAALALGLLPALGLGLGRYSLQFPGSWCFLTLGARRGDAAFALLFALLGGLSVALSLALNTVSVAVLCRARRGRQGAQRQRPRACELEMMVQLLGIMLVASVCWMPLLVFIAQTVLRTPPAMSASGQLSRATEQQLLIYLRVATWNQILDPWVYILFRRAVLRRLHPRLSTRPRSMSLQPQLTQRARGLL
The assay can be described thus: Estimation of pA2 values in guinea pig tracheal chain (agonist U-44069). The assay is classed as cell-based, guinea pig (male albino Hartley strain). To be noted: for Kb: logarithmic scale, agonist U-44069, guinea pig tracheal chain. The text has this:
ESTIMATION OF pA2 VALUES IN GUINEA PIG TRACHEAL CHAIN
Male albino Hartley strain guinea pigs (300-350 gm) were sacrificed by a blow to the head and exsanguinated. The trachea was removed, freed of extraneous tissue and sectioned into rings of 1-2 mm thickness. Five rings were tied together in series, ensuring that the tracheal muscle lay in the same vertical plane, and the cartilage of each ring then separated at a point directly opposite the muscle. The chains were suspended under 1 gm resting tension in modified Krebs solution (NaCl, 6.87; NaHCO3, 2.1; dextrose, 2.1; KCl, 0.32; CaCl2, 0.28; MgSO4, 7H2 O, 0.11; KH2 PO4, 0.16; gm/L: equilibrated with 5% CO2 in O2 for 1 hour) containing indomethacin (1.4×10-^5 M) to suppress endogenous protaglandin synthesis, Organ bath temperature was maintained at 37° C. and 5% CO2 in O2 diffused continously. Isometric tension changes were recorded from a Gould-Statham (UTC 2) force displacement transducer connected to a Beckman Type R Dynograph. For assay purposes initial maximal contractions were elicited with a high concentration of the contractile agonist [U-44069, 9.11-dideoxy-9a,11a-epoxymethano PGF2a ] and the tissue subsequently washed at intervals until tension returned to baseline. Agonist dose response curves were obtained using a cumulative-dose schedule (4-8 doses) and the preparations then washed at regular intervals until baseline tension was recorded. After an appropriate interval (1-1.5 hrs) agonist dose response curves were repeated in the presence of antagonist drug concentrations. […] EC50 values were obtained by regression analysis and used to calculate `apparent` and Schild Plot pA2 values by the method of Tallarida and Murray 1981.
In Table 6 below are presented data indicating the prostanoid antagonist activities of compounds of the present invention indicated in Table 1. It is to be noted that pA2 values are on a logarithmic scale, so that, for instance, a difference between two pA2 values of 1 represents a difference in potency by a factor of 10.

A further assay deals with human platelets. Nature of the assay: Inhibition of U44069-induced threshold aggregation of human platelets. The following applies: compound A versus compound 1; compound B versus compound 3. The assay is classed as cell-based. As to the method:
INHIBITION OF INDUCED THRESHOLD AGGREGATION OF HUMAN PLATELETS
Human platelet rich plasma (PRP) is prepared from venous blood of male volunteers who have taken no medication for ten days prior to test. Blood is transferred into plastic centrifuge tubes containing 3.8% Trisodium Citrate in 0.9% NaCl (in a ratio of blood to anticoagulant of 9:1), mixed by gentle inversion, and centrifuged at room temperature for ten minutes at 116 g. The supernatant (PRP) is transferred into plastic tubes. Platelet poor plasma (PPP) is obtained by centrifuging the residual blood cells at 4000 g for ten minutes. PRP is left to stand at least one half hour prior to testing.
Platelet Aggregation is measured using a Payton Aggregometer and Recorder. […]
The threshold (approximately 20-30% of maximum) aggregation concentration of the agonist to be used is first determined in the presence of the drug vehicle (control). […]
The height of the aggegation response (measured in divisions of the recorder paper, 1 division=2.5 mm) in the presence of the drug is recorded, and calculated as percent inhibition of the mean height of the control threshold responses. […]

As for `COc1ccc2c(c1)c1c(n2Cc2ccc(Cl)cc2)CC(C(=O)O)CC1` (stereo not drawn) [drawing 27], the Kb in assay [1] is 158 nM. Same read-out and setting: the figure for `O=C(O)CC1CCCCc2c1n(Cc1ccc(Cl)cc1)c1ccc(F)cc21` (stereo not drawn) is 1.35 nM; for `O=C(O)CC1CCCCc2c1c1cc(F)ccc1n2Cc1ccc(Cl)cc1` (stereo not drawn) it is 42.7 nM; for `COc1ccc2c(c1)c1c(n2Cc2ccc(Cl)cc2)CC(CC(=O)O)CC1` (stereo not drawn) [drawing 26] it is 158 nM. `COc1ccc2c(c1)c1c(n2Cc2ccc(Cl)cc2)CC(CC(=O)O)CC1` (stereo not drawn) [Compound A, reference compound]: in assay [1] (compound A versus compound 1), the “factor corresponding to the pA2 difference from compound 1” value is recorded as 15 and the “pA2 lower than that of compound 1” value is 1.7 log units. In addition, the “potency as an inhibitor of platelet aggregation relative to the seven-membered ring analog” value with human platelets is “seventy times less potent than compound 1”. As for `O=C(O)CC1CCCc2c(n(Cc3ccc(Cl)cc3)c3ccc(F)cc23)C1` (stereo not drawn), the Kb in assay [1] was 3.16 nM. Same read-out and setting: the figure for `CS(=O)(=O)c1ccc(Cn2c3c(c4cc(F)cc(F)c42)CCCC(CC(=O)O)C3)cc1` (stereo not drawn) is 8.32 nM.

For the molecule `COc1ccc2c(c1)c1c(n2Cc2ccc(Cl)cc2)CC(C(=O)O)CC1` (stereo not drawn) [Compound B, reference compound], in assay [1] (compound B versus compound 3), the “pA2 compared with compound 3, in words” value is listed as “slightly lower pA2 value”. Also, the “potency as an inhibitor of platelet aggregation relative to the seven-membered ring analog” value in the assay on human platelets is given as “at least four times less potent than the latter”. In the case of `O=C(O)C1CCCc2c(n(Cc3ccc(Cl)cc3)c3ccc(F)cc23)C1` (stereo not drawn), the Kb in assay [1] was 129 nM.
